The test system of data set [1] is Brevibacterium epidermidis (ATCC 35514). Description: turbidimetric growth-curve MIC determination. The format is cell-based. The following applies: turbidimetry 620 nm, 16 h, 37° C. From the text:
(§1) The recognition that 3-(4-hydroxy-3-methoxyphenyl)-1-(4-hydroxyphenyl)-1-propanone of the formula 1 is very particularly suitable for combating microorganisms which are responsible for body odor is based on series of investigations relating to the particularly relevant microorganisms Staphylococcus epidermidis, Corynebacterium xerosis and Brevibacterium epidermidis. The antimicrobial action of 3-(4-hydroxy-3-methoxyphenyl)-1-(4-hydroxyphenyl)-1-propanone is here detected with the assistance of a turbidimetric measurement method. Turbidity measurement is used to establish growth curves for the particular microorganism in the presence and absence of an antimicrobial active ingredient. A possible inhibitory action of the test substance used is identified from the profile of the growth curves. Solutions with saline or DMSO for 100% growth are prepared as a negative control. The active substances to be investigated are first diluted in DMSO in reaction vessels. Dilution is carried out in accordance with the concentration range to be tested and corresponds in each case to 100 times the concentration of the subsequent final concentration in the test. Testing is usually begun with a final concentration of 2000 ppm in the test. Growth curves at final concentrations of 1000 ppm, 500 ppm, 250 ppm, 125 ppm, 64 ppm, 32 ppm, 16 ppm and 8 ppm are subsequently determined. The bacterial cultures are then incubated in the presence of the various final concentrations of antimicrobial active ingredient for 16 h (incubation temperature: 37° C.). The absorption values (wavelength 620 nm; measurement interval: 20 minutes) obtained over the 16 hour period of turbidimetric measurement are recorded and exported into the spreadsheet program MS Excel. Means from in each case three parallel batches are calculated and used as the basis for establishing growth curves. The curves of the individual test sample concentrations are compared with those for the negative controls and the MIC value (minimum inhibitory concentration) is determined. […]

In data set [2] the test system is Corynebacterium xerosis (DSM 20743). The data set is described as follows: turbidimetric growth-curve MIC determination. It is filed as cell-based. To be noted: DSM20743, turbidimetry 620 nm, 16 h, 37° C., read-out: MIC value (complete inhibition of growth).
From the text: as §1

Data set [3] has as its system Staphylococcus epidermidis (ATCC 12228). Description: turbidimetric growth-curve MIC determination. The format is cell-based. The following applies: turbidimetry 620 nm, 16 h, 37° C.
From the text: as §1

Data set [4] relates to Corynebacterium xerosis (DSM 20743). Description: quantitative suspension test. It is filed as cell-based.
The test system of data set [5] is Staphylococcus epidermidis (ATCC 12228). The data set is described as follows: quantitative suspension test. It is filed as cell-based.
The subject of data set [6] is Brevibacterium epidermidis (ATCC 35514). Description: quantitative suspension test. It is filed as cell-based.
Data set [7] concerns microorganisms which cause body odor. Description: in vivo sniffing tests on human test subjects suffering from severe body odor. To be noted: human test subjects with severe body odor.
A short description of data set [8]: investigations into chemical properties (stability). The format is physicochemical. From the text:
In addition, in pure form, the compound according to the invention of the formula 1 is a white solid which forms a colorless solution in (cosmetic and/or pharmaceutical) carriers; furthermore, no discoloration was observed after incorporation of the compound according to the invention of the formula 1 in cosmetic products, in medical devices and in pharmaceutical preparations.

Structures are written as SMILES. Values after ≈ are worked out from the molar mass of the structure shown.

These results are taken from patent publication US8115033B2, “3-(4-hydroxy-3-methoxyphenyl)-1-(4-hydroxyphenyl)-1-propanone and use thereof as an antimicrobial active ingredient” (Symrise AG, priority 2007, dated 2012).

The MIC is the least concentration at which growth counts as inhibited. For `COc1cc(CCC(=O)c2ccc(O)cc2)ccc1O` [3-(4-hydroxy-3-methoxyphenyl)-1-(4-hydroxyphenyl)-1-propanone], the “concentration giving inhibition of the growth” value in data set [1] and in data set [3] was “below 0.1 wt. %” throughout. Besides, the minimal inhibitory concentration (MIC) in data set [2] was 500 µg/mL (≈ 1840 µM). Further, the antimicrobial activity result in data set [4], in data set [5] and in data set [6] was “confirm the antimicrobial activity” throughout. In data set [7], the “antimicrobial activity (body odor)” value is reported as “confirm the antimicrobial activity”. Moreover, the temperature stability entry in data set [8] was “elevated temperature stability”. Moreover, the “stability over pH values” in data set [8] (wide range of pH values) is given as “high stability over a wide range of pH values”.
